From patent publication US12691070B2, “Cationic lipids and preparation method thereof” (RiboX Therapeutics HK Limited, priority 2023, dated 2026)

What was measured:
[1] = LNP size and polydispersity index (PDI) by dynamic light scattering; format: physicochemical; settings: for Size: in nm (unit assumed)
Procedure, shortened: (§1)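 Dynamic light scattering and zeta potential measurements were run on PBS-dialyzed LNPs, which had been formed by microfluidic mixing at 12 ml/min with final lipid at 1.5 mM to 6 mM. RNA content and percent encapsulation were determined by Ribogreen with and without Triton X-100.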

[2] = LNP zeta potential (Zetasizer); format: physicochemical
Procedure, shortened: as §1

[3] = RNA encapsulation efficacy by Quant-IT Ribogreen kit; format: physicochemical; settings: for Encapsulation Efficiency %: LNP with cirRNA (SEQ ID NO: 1); for Encapsulation Efficiency: LNP with mRNA (SEQ ID NO: 2)
Procedure, shortened: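 Encapsulation efficacy came from Ribogreen fluorescence of LNPs compared with Triton X-100-lysed LNPs. The particles carried luciferase-encoding circular or linear RNA at an ionizable lipid:ribonucleotide ratio of 15 or 6.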

Hep G2 cells [4] = test: In vitro expression of firefly-luciferase, Hep G2; format: cell-based
Procedure, shortened: (§2)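 Transfection used 100 ng/mL luciferase-encoding RNA-LNPs; activity in lysates was determined at 72 h.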

RAW 264.7 cells [5] = test: In vitro expression of firefly-luciferase, RAW 264.7; format: cell-based
Procedure, shortened: as §2

Hep G2 cells [6] = test: In vitro toxicity (CellTiter-Glo cell viability), Hep G2; format: cell-based;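 also: percent of untreated cells luminescence signal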
Procedure, shortened: (§3)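 Toxicity of RNA-LNPs (1 μg/mL) is reported as cell viability, calculated from CellTiter-Glo luminescence measured at 72 hours after transfection.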

RAW 264.7 cells [7] = test: In vitro toxicity (CellTiter-Glo cell viability), RAW 264.7; format: cell-based;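 also: percent of untreated cells luminescence signal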
Procedure, shortened: as §3

BALB/C mice [8] = test: In vivo expression, whole-body luminescence (IVIS)
Description: 6-8 week old, female BALB/C mice were injected with 0.05 mg*kg-1 of RNA-LNPs encoding for firefly-luciferase by intravenous injection. At 6 hours post injection, animals were intraperitoneally injected with 15 mg/ml of Luciferin substrate and whole-body luminescence was determined by a bioluminescent in vivo imaging system (IVIS).

MCP-I = MCP-I cytokine elevation in serum; format: in vivo; settings: cirRNA (SEQ ID NO: 1) LNPs, mice
Description: 6-8 week old, female BALB/C mice were injected with 0.5 mg*kg-1 of RNA LNPs by intravenous injection. At 2 and 24 hours post injection, animals were bled and sera concentrations of MCP-I were determined by an immunoassay (Luminex).

[9] = system: Alanine Aminotransferase (ALT); test: Liver enzyme elevation in serum, ALT; format: in vivo; settings: cirRNA (SEQ ID NO: 1) LNPs, BALB/C mice, intravenous 0.5 MPK
Description: (§4) 6-8 week old, female BALB/C mice were injected with 0.5 mg*kg-1 of RNA LNPs by intravenous injection. At 2 and 24 hours post injection, animals were bled and sera concentrations of Alanine Aminotransferase (ALT) and Aspartate Aminotransferase (AST) were determined by a blood chemistry analyzer.

[10] = system: Aspartate Aminotransferase (AST); test: Liver enzyme elevation in serum, AST; format: in vivo; settings: cirRNA (SEQ ID NO: 1) LNPs, BALB/C mice, intravenous 0.5 MPK
Description: as §4

BALB/C mice [11] = test: Local tolerance determination by footpad injection; format: in vivo; settings: cirRNA (SEQ ID NO: 1) LNP, 0.175 mg*kg-1 subcutaneous into the footpad, 24 hours post minus prior
Description: 6-8 week old, female BALB/C mice were injected with 0.175 mg*kg-1 RNA LNPs by subcutaneous injection into the footpad. Prior to, and 24 hours post injections, injected footpad thickness was determined by a caliper.

[12] = cirRNA (SEQ ID NO: 1) LNPs, firefly-luciferase luminescence, Hep G2 cells
[13] = mRNA (SEQ ID NO: 2) LNP, 100 ng/mL, 72 hours post transfection, luciferase activity
[14] = cirRNA (SEQ ID NO: 1) LNPs, firefly-luciferase luminescence, RAW 264.7 cells
[15] = cirRNA (SEQ ID NO: 1) LNPs, Hep G2 cells
[16] = mRNA (SEQ ID NO: 2) LNP, 1 μg/mL, 72 hours post transfection
[17] = cirRNA (SEQ ID NO: 1) LNPs, RAW 264.7 cells
[18] = cirRNA (SEQ ID NO: 1) LNPs, BALB/C mice
[19] = mRNA (SEQ ID NO: 2) LNP, 0.05 mg*kg-1 intravenous, 6 hours post injection

Row | SMILES | PDI ([1]; LNP with cirRNA (SEQ ID NO: 1)) | Size ([1]; LNP with cirRNA (SEQ ID NO: 1)) | PDI ([1]; LNP with mRNA (SEQ ID NO: 2)) | Size ([1]; LNP with mRNA (SEQ ID NO: 2)) | Zeta (mV) ([2]; LNP with cirRNA (SEQ ID NO: 1)) | Zeta (mV) ([2]; LNP with mRNA (SEQ ID NO: 2)) | Encapsulation Efficiency % [3] | Encapsulation Efficiency [3] | MCP-I in Sera 2 hours After 0.5 MPK Injection (MCP-I) | MCP-I in Sera 24 hours After 0.5 MPK Injection (MCP-I) | In vitro Expression HepG2 (Hep G2 cells [4]; [12]) | In vitro Expression HepG2 (Hep G2 cells [4]; [13]) | In vitro Expression RAW (RAW 264.7 cells [5]; [14]) | In vitro Expression RAW (RAW 264.7 cells [5]; [13]) | In vitro Viability HepG2 (Hep G2 cells [6]; [15]) | In vitro Viability HepG2 (Hep G2 cells [6]; [16]) | In vitro Viability RAW (RAW 264.7 cells [7]; [17]) | In vitro Viability RAW (RAW 264.7 cells [7]; [16]) | In vivo Expression (Whole Body) (BALB/C mice [8]; [18]) | In vivo Expression (Whole Body) (BALB/C mice [8]; [19]) | further results
1 | CCCCCCCCC(CCCCCCCC)OC(=O)CCCCCCCN(CCCCCCCCOC(=O)C(CCCCCC)CCCCCCCC)CCCOC(=O)NCCN(C)C (stereo not drawn) [Lipid 344] | 0.1332 | 98.08 | 0.1063 | 97.82 | 2.343 mV | 1.967 mV | 97% | 93.45% | 7150.00 pg/mL | 946.87 pg/mL | 1.08E+07 | 8.78E+07 | 1.97E+06 | 1.59E+07 | 96% | 78% | 94% | 88% | 7.43E+07 | 2.15E+09 | ALT in Sera (IU/L) 2 hours After 0.5 MPK Injection [9]: 161.67 IU/L; ALT in Sera (IU/L) 24 hours After 0.5 MPK Injection [9]: 204.33 IU/L; AST in Sera (IU/L) 2 hours After 0.5 MPK Injection [10]: 333.67 IU/L; AST in Sera (IU/L) 24 hours After 0.5 MPK Injection [10]: 340.00 IU/L; Footpad Thickness (24 h−0 h, mm) (BALB/C mice [11]): 0.53 mm
2 | CCCCCCCCC(CCCCCCCC)OC(=O)CCCCCCCN(CCCCCCCCOC(=O)C(CCCCCC)CCCCCCCC)CCCOC(=O)NCCCN(C)C (stereo not drawn) [Lipid 348] | 0.2546 | 100.8 | 0.1488 | 101.8 | 1.734 mV | 8.774 mV | 98% | 83.15% | 1894.33 pg/mL | 128.60 pg/mL | 1.59E+06 | 1.45E+07 | 2.47E+05 | 2.52E+03 | 65% | 60% | 73% | 77% | 6.47E+07 | 1.87E+07 | ALT in Sera (IU/L) 2 hours After 0.5 MPK Injection [9]: 82.33 IU/L; ALT in Sera (IU/L) 24 hours After 0.5 MPK Injection [9]: 96.33 IU/L; AST in Sera (IU/L) 2 hours After 0.5 MPK Injection [10]: 307.00 IU/L; AST in Sera (IU/L) 24 hours After 0.5 MPK Injection [10]: 148.00 IU/L; Footpad Thickness (24 h−0 h, mm) (BALB/C mice [11]): 0.78 mm
3 | CCCCCCCCC(CCCCCCCC)OC(=O)CCCCCCCN(CCCCCCCCOC(=O)C(CCCCCC)CCCCCCCC)CCCOC(=O)NCCN1CCCC1 (stereo not drawn) [Lipid 350] | 0.1717 | 112.8 | 0.1151 | 105.3 | 6.91 mV | 0.9211 mV | 97% | 83.19% | 6084.33 pg/mL | 2039.50 pg/mL | 1.43E+07 | 4.34E+07 | 3.38E+06 | 5.78E+06 | 95% | 111% | 74% | 86% | 1.03E+08 | 5.29E+08 | ALT in Sera (IU/L) 2 hours After 0.5 MPK Injection [9]: 105.67 IU/L; ALT in Sera (IU/L) 24 hours After 0.5 MPK Injection [9]: 121.33 IU/L; AST in Sera (IU/L) 2 hours After 0.5 MPK Injection [10]: 368.00 IU/L; AST in Sera (IU/L) 24 hours After 0.5 MPK Injection [10]: 362.67 IU/L; Footpad Thickness (24 h−0 h, mm) (BALB/C mice [11]): 0.55 mm

More lines, main results first:

Row | PDI ([1]; LNP with cirRNA (SEQ ID NO: 1)) | Size ([1]; LNP with cirRNA (SEQ ID NO: 1)) | PDI ([1]; LNP with mRNA (SEQ ID NO: 2)) | Size ([1]; LNP with mRNA (SEQ ID NO: 2)) | Zeta (mV) ([2]; LNP with cirRNA (SEQ ID NO: 1)) | Zeta (mV) ([2]; LNP with mRNA (SEQ ID NO: 2)) | Encapsulation Efficiency % [3] | Encapsulation Efficiency [3] | MCP-I in Sera 2 hours After 0.5 MPK Injection (MCP-I) | MCP-I in Sera 24 hours After 0.5 MPK Injection (MCP-I) | SMILES | In vitro Expression HepG2 (Hep G2 cells [4]; [12]) | In vitro Expression HepG2 (Hep G2 cells [4]; [13]) | In vitro Expression RAW (RAW 264.7 cells [5]; [14]) | In vitro Expression RAW (RAW 264.7 cells [5]; [13]) | In vitro Viability HepG2 (Hep G2 cells [6]; [15]) | In vitro Viability HepG2 (Hep G2 cells [6]; [16]) | In vitro Viability RAW (RAW 264.7 cells [7]; [17]) | In vitro Viability RAW (RAW 264.7 cells [7]; [16]) | In vivo Expression (Whole Body) (BALB/C mice [8]; [18]) | In vivo Expression (Whole Body) (BALB/C mice [8]; [19]) | further results
4 | 0.2068 | 98.73 | 0.1219 | 97.34 | 0.345 mV | 0.8825 mV | 93% | 94.51% | 1986.67 pg/mL | 522.62 pg/mL | CCCCC/C=C\C/C=C\CCCCCCCCN(CCCCCCCC(=O)OC(CCCCCCCC)CCCCCCCC)CCCOC(=O)NCc1ncc[nH]1 [Lipid 271] | 5.51E+06 | 3.69E+06 | 1.59E+06 | 6.06E+06 | 91% | 117% | 121% | 85% | 8.99E+07 | 8.51E+08 | ALT in Sera (IU/L) 2 hours After 0.5 MPK Injection [9]: 128.33 IU/L; ALT in Sera (IU/L) 24 hours After 0.5 MPK Injection [9]: 114.67 IU/L; AST in Sera (IU/L) 2 hours After 0.5 MPK Injection [10]: 200.67 IU/L; AST in Sera (IU/L) 24 hours After 0.5 MPK Injection [10]: 231.33 IU/L; Footpad Thickness (24 h−0 h, mm) (BALB/C mice [11]): 0.40 mm
5 | 0.1464 | 64.42 | 0.07602 | 88.07 | −0.02248 mV | 0.8258 mV | 96% | 94.50% | 1659.21 pg/mL | 120.48 pg/mL | CCCCC/C=C\C/C=C\CCCCCCCCN(CCCCCCCC(=O)OC(CCCCCCCC)CCCCCCCC)CCCOC(=O)NCCCn1ccnc1 [Lipid 276] | 9.80E+05 | 3.01E+05 | 1.07E+06 | 8.16E+05 | 95% | 115% | 117% | 83% | 1.88E+08 | 1.26E+07 | ALT in Sera (IU/L) 2 hours After 0.5 MPK Injection [9]: 247.67 IU/L; ALT in Sera (IU/L) 24 hours After 0.5 MPK Injection [9]: 52.00 IU/L; AST in Sera (IU/L) 2 hours After 0.5 MPK Injection [10]: 247.33 IU/L; AST in Sera (IU/L) 24 hours After 0.5 MPK Injection [10]: 89.67 IU/L; Footpad Thickness (24 h−0 h, mm) (BALB/C mice [11]): 0.51 mm
6 | 0.1471 | 91.92 | 0.1831 | 119 | 0.06032 mV | 0.3567 mV | 96% | 86.19% | 1815.67 pg/mL | 1070.74 pg/mL | CCCCC/C=C\C/C=C\CCCCCCCCN(CCCCCCCC(=O)OC(CCCCCCCC)CCCCCCCC)CCCOC(=O)NCCN1CCCCC1 [Lipid 278] | 2.22E+07 | 3.75E+07 | 8.67E+06 | 6.01E+06 | 91% | 100% | 132% | 83% | 1.19E+08 | 2.18E+08 | ALT in Sera (IU/L) 2 hours After 0.5 MPK Injection [9]: 177.33 IU/L; ALT in Sera (IU/L) 24 hours After 0.5 MPK Injection [9]: 102.50 IU/L; AST in Sera (IU/L) 2 hours After 0.5 MPK Injection [10]: 275.33 IU/L; AST in Sera (IU/L) 24 hours After 0.5 MPK Injection [10]: 322.67 IU/L; Footpad Thickness (24 h−0 h, mm) (BALB/C mice [11]): 0.63 mm
